We go through 3 molecules from patent publication US6476060B2, “4,5-dihydro-1H-pyrazole derivatives having CB1-antagonistic activity” (Solvay Pharmaceuticals, B.V., priority 2000, dated 2002).

`O=S(=O)(NCCN1CC(c2ccccc2)C(c2ccc(Cl)cc2)=N1)c1cccc(C(F)(F)F)c1` (stereo not drawn) [IX, N-[2-(3-(4-Chlorophenyl)-4,5-dihydro-4-phenyl-1H-pyrazol-1-yl)ethyl]-3-(trifluoromethyl)benzenesulfonamide]: the melting point lay in the range of 94 to 96 °C. With `CNC(=NC(=O)c1cccc(C(F)(F)F)c1)N1CC(c2ccccc2)C(c2ccc(Cl)cc2)=N1` (stereo not drawn) [V, N-Methyl-N′-(3-(trifluoromethyl)benzoyl)-3-(4-chlorophenyl)-4,5-dihydro-4-phenyl-1H-pyrazole-1-carboxamidine] the figure was 180 to 182 °C; with `O=S(=O)(CCN1CC(c2ccccc2)C(c2ccc(Cl)cc2)=N1)c1cccc(C(F)(F)F)c1` (stereo not drawn) [VIII, 3-(4-Chlorophenyl)-4,5-dihydro-4-phenyl-1-[2-((3-(trifluoromethyl)phenyl)-sulfonyl)ethyl]-1H-pyrazole], 118 to 119 °C.

Usually melting point stands for the temperature of the solid-liquid transition.
